Data set [1] deals with Amyloid-beta precursor protein (Homo sapiens) (UniProt P05067). Description: Inhibition of amyloid beta (unknown origin) aggregation at 10 uM incubated for 20 hrs by Tht-based fluorescence spectroscopy assay relative to control.
The target is the same in data set [2]. The data set is described as follows: Inhibition of amyloid beta (unknown origin) aggregation at 1 uM incubated for 20 hrs by Tht-based fluorescence spectroscopy assay relative to control.
Data set [3] can be described thus: Aqueous solubility of compound by shake flask method. The class given is physicochemical. The following applies: water.
The nature of data set [4]: Cytotoxicity against rat PC12 cells measured for 24 hrs by WST-assay. The class given is toxicity, cell-based, PC-12.
Data set [5] has as its target Amyloid-beta precursor protein (Homo sapiens) (UniProt P05067). Description: Inhibition of amyloid beta (unknown origin) aggregation assessed as change in aggregated monomers structure measured for 10 hrs by Tht-based fluorescence spectroscopy assay.
Data set [6] has the same target. The data set is described as follows: Inhibition of amyloid beta (unknown origin) aggregation assessed as reduction in rod like structure by […] analysis.
Data set [7] has the same target. The data set is described as follows: Inhibition of amyloid beta (unknown origin) aggregation assessed as reduction in beta-sheet formation by CD spectroscopy analysis.
The target is the same in data set [8]. The data set is described as follows: Inhibition of amyloid beta (unknown origin) aggregation assessed as aggregate diameter by […] analysis.

The results in this text go back to ChEMBL document CHEMBL5550149, “Synthesis and evaluation of catecholamine derivatives as amyloid-beta aggregation inhibitors” (Bioorg Med Chem Lett, 2024).

A word on the inhibition: it is how much of the control response was suppressed. One may read the solubility (thermodynamic) as the concentration in solution at equilibrium with solid. Broadly, the CC50 is the concentration at which the toxic effect on the cells reaches its halfway point. Low readings indicate harm at low concentration, high ones better tolerance by the cells.

The structures appear in SMILES notation. Converted amounts (≈) assume the structure as drawn. The source made the active and inactive calls. No cut-off for these calls is given here.

Amyloid-beta precursor protein (Homo sapiens), sequence (P05067 whole entry): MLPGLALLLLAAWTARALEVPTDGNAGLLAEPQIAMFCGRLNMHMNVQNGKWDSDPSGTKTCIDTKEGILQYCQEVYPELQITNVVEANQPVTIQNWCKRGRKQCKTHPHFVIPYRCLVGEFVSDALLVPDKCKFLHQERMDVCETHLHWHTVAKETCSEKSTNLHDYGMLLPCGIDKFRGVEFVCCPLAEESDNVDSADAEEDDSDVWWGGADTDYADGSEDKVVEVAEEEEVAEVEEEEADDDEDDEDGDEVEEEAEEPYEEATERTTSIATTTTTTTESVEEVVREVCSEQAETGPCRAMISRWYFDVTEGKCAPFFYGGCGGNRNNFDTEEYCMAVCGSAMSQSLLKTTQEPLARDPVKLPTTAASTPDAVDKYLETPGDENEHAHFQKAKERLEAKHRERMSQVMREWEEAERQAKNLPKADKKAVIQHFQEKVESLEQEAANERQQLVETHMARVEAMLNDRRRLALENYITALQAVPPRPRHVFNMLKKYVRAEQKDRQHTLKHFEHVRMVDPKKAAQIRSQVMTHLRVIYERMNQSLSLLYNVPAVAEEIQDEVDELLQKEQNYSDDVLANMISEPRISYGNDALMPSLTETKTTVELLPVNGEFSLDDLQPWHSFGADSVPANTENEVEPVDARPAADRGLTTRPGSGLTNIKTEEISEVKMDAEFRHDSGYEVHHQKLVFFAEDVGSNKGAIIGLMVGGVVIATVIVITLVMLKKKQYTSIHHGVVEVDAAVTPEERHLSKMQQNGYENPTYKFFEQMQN

On to `O=C(N[C@H](CO)Cc1ccc(O)c(O)c1)c1ccc(O)cc1`, for which the inhibition turned out to be 20% in data set [1] and 0% in data set [2]. Also, in data set [3], the solubility (thermodynamic) was determined as 1600 µM (≈ 485 µg/mL). The same molecule came in with a CC50 at 24 h in data set [4] of over 150 µM.
The like results for `O=C(Cc1ccccc1)NCCc1ccc(O)c(O)c1` were, in that order, 30%, 0%, 1300 µM (≈ 353 µg/mL) and over 150 µM.
The like results for `O=C(Cc1ccc(O)c(O)c1)NCCc1ccc(O)c(O)c1` were, in that order, 92%, 29%, 2500 µM (≈ 758 µg/mL) and over 150 µM.
For `O=C(/C=C/c1ccc(O)c(O)c1)NCCc1ccc(O)c(O)c1`, the inhibition in data set [1] was determined as 100%; in data set [2], 55%. This molecule also registered a thermodynamic solubility in data set [3] of 1500 µM (≈ 473 µg/mL). In data set [4], the CC50 at 24 h was over 150 µM. Also, the inhibition result in data set [5] and in data set [6] was “Active” in each case. For the same molecule, the inhibition result in data set [7] is “inactive”. For the same molecule, the Activity in data set [8] was 74 nm.
As for `O=C(N[C@H](CO)Cc1ccc(O)c(O)c1)c1cc(O)cc(O)c1`, the inhibition in data set [1] worked out at 22%; in data set [2] it was 0%. Besides, in data set [3], the thermodynamic solubility came to 1500 µM (≈ 479 µg/mL). Also, the CC50 at 24 h in data set [4] was over 150 µM.
Turning to `O=C(N[C@H](CO)Cc1ccc(O)c(O)c1)c1cc(O)c(O)c(O)c1`, the figures for the inhibition in data set [1] and in data set [2] were 85% and 16%, respectively. This molecule registered a thermodynamic solubility in data set [3] of 3000 µM (≈ 1010 µg/mL). The CC50 at 24 h in data set [4] came to 80 µM.
The like results for `O=C(N[C@H](CO)Cc1ccc(O)c(O)c1)c1ccc(O)c(O)c1` were, in that order, 90%, 35%, 1200 µM (≈ 383 µg/mL) and over 150 µM.
`O=C(Cc1cccc(O)c1O)NCCc1ccc(O)c(O)c1`: the values for the inhibition in data set [1] and in data set [2] were 70% and 0%, respectively. Moreover, the solubility (thermodynamic) in data set [3] stood at 2000 µM (≈ 607 µg/mL). The cytotoxic concentration (CC50) at 24 h in data set [4] was over 150 µM.
The like results for `O=C(N[C@H](CO)Cc1ccc(O)c(O)c1)c1cccc(O)c1O` were, in that order, 80%, 0%, 1300 µM (≈ 415 µg/mL) and over 150 µM.
The like results for `O=C(N[C@H](CO)Cc1ccc(O)c(O)c1)c1ccccc1` were, in that order, 70%, 0%, 700 µM (≈ 201 µg/mL) and over 150 µM.
Turning to `COC(=O)[C@H](Cc1ccc(O)c(O)c1)NC(=O)c1cc(O)c(O)c(O)c1`, the values for the inhibition in data set [1] and in data set [2] were 95% and 30%, respectively. In data set [3], this molecule had a solubility (thermodynamic) of 377 µM (≈ 137 µg/mL). Moreover, in data set [4], half-maximal cytotoxicity (CC50 at 24 h) was put at 150 µM.
The like results for `O=C(/C=C/c1ccccc1)NCCc1ccc(O)c(O)c1` were, in that order, 92%, 40%, 750 µM (≈ 212 µg/mL) and over 150 µM.
Turning to `O=C(Cc1cc(O)ccc1O)NCCc1ccc(O)c(O)c1`, the results for the inhibition in data set [1] and in data set [2] were 80% and 19%, respectively. For the same molecule, the solubility (thermodynamic) in data set [3] was found to be 800 µM (≈ 243 µg/mL). The same molecule displayed a 50% cytotoxic concentration (CC50) at 24 h in data set [4] of over 150 µM.
Take `O=C(/C=C/c1ccc(O)c(O)c1)N[C@@H](Cc1ccc(O)c(O)c1)C(=O)O`: the inhibition in data set [1] was found to be 86%. Moreover, the thermodynamic solubility in data set [3] was 1410 µM (≈ 507 µg/mL). In addition, the 50% cytotoxic concentration (CC50) at 24 h in data set [4] is over 150 µM.
On to `O=C(Cc1ccc(O)cc1)NCCc1ccc(O)c(O)c1`, for which the inhibition in data set [1] was found to be 80%; in data set [2], 18%. In data set [3], this molecule gave a solubility (thermodynamic) of 2000 µM (≈ 575 µg/mL). This molecule yielded a CC50 at 24 h in data set [4] of over 150 µM.
`O=C1C=C(c2ccc(O)c(O)c2)OC(c2cc(O)ccc2O)C1` (centres undefined) displayed an inhibition in data set [2] of 76%. The thermodynamic solubility in data set [3] was 2340 µM (≈ 735 µg/mL).
For the molecule `N[C@@H](Cc1ccc(O)c(O)c1)C(=O)O`, the results for the inhibition in data set [1] and in data set [2] were 31% and 0%, respectively.
On to `O=C(Cc1cc(O)c(O)c(O)c1)NCCc1ccc(O)c(O)c1`, for which the inhibition in data set [1] worked out at 90%; in data set [2], 20%. Further, the solubility (thermodynamic) in data set [3] stood at 3200 µM (≈ 1020 µg/mL). In data set [4], this molecule registered a CC50 at 24 h of 80 µM.
Regarding `O=C(N[C@H](CO)Cc1ccc(O)c(O)c1)c1cc(O)ccc1O`, the inhibition in data set [1] stood at 70%; in data set [2], 28%. Further, in data set [3], the thermodynamic solubility amounted to 2500 µM (≈ 798 µg/mL). Besides, in data set [4], the CC50 at 24 h was over 150 µM.
The like results for `O=C(Cc1cc(O)cc(O)c1)NCCc1ccc(O)c(O)c1` were, in that order, 25%, 0%, 1800 µM (≈ 546 µg/mL) and over 150 µM.
